pEC50: −log10 of the molar value. Like-named read-outs stand apart in the source and are kept apart here.
Key:
[1] = tested on: human and canine patient-derived sarcospheres; experiment: Resazurin metabolic activity of patient-derived sarcospheres, human and canine summarised together; assay type: cell-based; details: 48 h, the other patient samples, read-out: ED50s of romidepsin-resistant patient samples
Excerpt: Osteosarcoma tissue was obtained during standard-of-care procedures (biopsies or resections) in human patients treated at Indiana University Health and Riley Children’s Hospital with Institutional Review Board approval (#1501467439). Tissue from canine patients with osteosarcoma was obtained from standard-of-care amputations at the Purdue University College of Veterinary Medicine and the Metropolitan Veterinary Hospital. Osteosarcoma diagnosis was confirmed by review of pathology reports. Demographic and clinical information for human and canine patients is in Table 1. Primary osteosarcoma cells were isolated by collagenase/mechanical dispersion using a modification of a previously described protocol ([35]). […] The tissue was rinsed with cold PBS (Cytiva, cat. #SH30028.02) and minced prior to incubation in 10 mL of culture media containing collagenase type II (750 units/mL with 13–18 units of clostripain/mL, Worthington, cat. #LS004176) for 3 hours at 37°C and 5% CO2. The media and tissue fragments were centrifuged at 200 g for 5 minutes. […]
The number of patient-derived cells required to obtain sarcospheres with 400-μm diameters was determined for each patient and varied from 1,000 to 15,000 cells per sarcosphere. […]

[2] = tested on: patient-derived sarcospheres; experiment: Sarcosphere size (Incucyte); assay type: cell-based, human, canine; details: 48-hour observation period; sensitive and resistant samples
Procedure: (§1) The number of patient-derived cells required to obtain sarcospheres with 400-μm diameters was determined for each patient and varied from 1,000 to 15,000 cells per sarcosphere.

[3] = tested on: sarcospheres derived from 143B, MG63.3-GFP, and LM7 cell lines; experiment: Sarcosphere resazurin metabolic activity, results stated across all three cell lines; assay type: cell-based, human; details: with and without MAP; vs belinostat, panobinostat, vorinostat, AR-42, resminostat
Procedure: Khanna DVM, PhD (NCI). […] Medium was sterile filtered before use.
Highly metastatic osteosarcoma cells cultured in monolayers at 50% to 80% confluence were lifted with Accutase (Innovative Cell Technologies, Inc., cat. #NC9839010), resuspended in media, and diluted to the desired concentration. […] Following cell seeding, plates were centrifuged (1,000 g for 10 minutes at 4°C) and then incubated at 37°C with 5% CO2. […] Then, 100 μL drug treatment or vehicle was added to each well. […] Resazurin reduction on day 2 by vehicle-treated sarcospheres was compared with resazurin reduction on day 0 to calculate sarcosphere growth without drug over 2 days in selected experiments.
Plates were incubated at 37°C in 5% CO2 for 2 or 6 hours.
Sarcospheres were matured for 24 hours and then treated for 48 hours with media containing 10 µmol/L of each drug and 0.1% DMSO. […] Growth inhibition represents a more clinically translatable measure for screening studies in which a value of 0% represents stable disease since the start of treatment, values of 0% to 100% represent progression in which 100% is the untreated control, and values less than 0% represent regression in which −100% represents blank wells without sarcospheres.

[4] = cited from earlier work
143B sarcospheres [5] = experiment: Transient romidepsin treatment, recovery of metabolic activity; assay type: cell-based, human; details: followed to day 14
Procedure: (§2) Sarcosphere losses were minimized by removing the media stepwise (25 μL/step, 10 μL/second) and by centering the sarcospheres in the middle of each well by centrifugation (1,000 g for 6 minutes) before each media exchange cycle. After each assay of metabolic activity, resazurin was removed by three cycles of media exchange and the media were changed on days 10 and 12 by one cycle.

LM7 sarcospheres [6] = experiment: as above; assay type: cell-based, human; details: 10–100 nmol/L; followed to day 14
Procedure: as §2

[7] = tested on: subcutaneous xenograft models of osteosarcoma cell lines; details: cited from earlier work
[8] = humans, cited from earlier work
[9] = tested on: murine K7M2 osteosarcoma cells; design: method as in PMID 32599665; details: compared with LM7 model; cited from earlier work
[10] = tested on: LM7 cell–derived lung metastases; design: method as in PMID 32599665; details: administration continued for the entire 21-week observation period; cited from earlier work
[11] = tested on: sarcospheres from canine patients with osteosarcoma; experiment: Resazurin metabolic activity of canine patient-derived sarcospheres; assay type: cell-based; details: for ED50: 48 hours, metabolic activity
Excerpt: Osteosarcoma tissue was obtained during standard-of-care procedures (biopsies or resections) in human patients treated at Indiana University Health and Riley Children’s Hospital with Institutional Review Board approval (#1501467439). Tissue from canine patients with osteosarcoma was obtained from standard-of-care amputations at the Purdue University College of Veterinary Medicine and the Metropolitan Veterinary Hospital. Osteosarcoma diagnosis was confirmed by review of pathology reports. Demographic and clinical information for human and canine patients is in Table 1. Primary osteosarcoma cells were isolated by collagenase/mechanical dispersion using a modification of a previously described protocol ([35]). […] The tissue was rinsed with cold PBS (Cytiva, cat. #SH30028.02) and minced prior to incubation in 10 mL of culture media containing collagenase type II (750 units/mL with 13–18 units of clostripain/mL, Worthington, cat. #LS004176) for 3 hours at 37°C and 5% CO2. The media and tissue fragments were centrifuged at 200 g for 5 minutes. Pellets with a visible layer of red blood cells were then treated with 5 mL of ACK Lysing Buffer (Gibco, cat. #A10492-01) for 1 minute and then centrifuged at 200 g for 2 minutes. Pellets were resuspended in culture media, pipetted up and down 15 times to disperse tissue fragments, and centrifuged at 200 g for 5 minutes. Finally, any remaining tissue fragments were crushed with a 25-mL pipette and transferred with released cells and culture media to a 100-mm tissue culture dish and incubated at 37°C and 5% CO2. Media were changed every 3 days. When a confluence of ∼80% was reached, the cells were passaged to 150-mm dishes at 5,000 cells/cm^2. Aliquots of the patient-derived osteosarcoma cells were frozen in 10% DMSO (Sigma-Aldrich, D2650), 40% FBS (Cytiva, SH30071.03), and 50% culture media at second passage and stored in liquid nitrogen. The TT2-77 xenoline is a patient cell line that was isolated from a patient-derived xenograft (PDX) that was previously developed and characterized by the Pollok lab ([5]).
as §1
Round-bottom 96-well plates were coated with 50 μL/well of 0.5% poly 2-hydroxyethyl methacrylate (Polysciences Inc., cat. #09689-25) in 100% ethanol and incubated at 37°C for 3 days before use to obtain a nonadherent surface. […] Highly metastatic osteosarcoma cells cultured in monolayers at 50% to 80% confluence were lifted with Accutase (Innovative Cell Technologies, Inc., cat. #NC9839010), resuspended in media, and diluted to the desired concentration.

LM7 sarcospheres [12] = experiment: Sarcosphere size (Incucyte); assay type: cell-based, human; details: 48-hour period
143B sarcospheres [13] = experiment: Sarcosphere size (Incucyte); assay type: cell-based, human; details: initial 48-hour observation period

With `C/C=C1\NC(=O)[C@H]2CSSCC/C=C/[C@H](CC(=O)N[C@H](C(C)C)C(=O)N2)OC(=O)[C@H](C(C)C)NC1=O` [romidepsin] as the compound, how does the pEC50 [1] read?
Its pEC50 is under 6.00.

What about the “effect on sarcosphere size” value [2] of the same compound?
Its value is “did not change in size”.

And the “rank of ED50s among tested HDIs” value [3]?
Its value is “lowest ED50s”.

What about the “most common severe adverse events” value [4] of the same compound?
Its value is “thrombocytopenia and neutropenia”.

What about the “most common side effect” value [4] of the same compound?
The value was “Nausea”.

And the severe toxicities [4]?
Its severe toxicities is “few severe toxicities”.

And the “most concerning potential side effect” value ([4]; reported in humans, rats, and beagle dogs)?
The value was “cardiac toxicity”.

And the “recovery of metabolic activity after a 24-hour exposure” value (143B sarcospheres [5])?
Its value is “rapidly recovered”.

What about the “recovery of metabolic activity after a 24-hour exposure” value (LM7 sarcospheres [6]) of the same compound?
The value was “sustained effect for 14 days”.

And the tumor response ([7]; mice followed for 1 week after discontinuation)?
Its tumor response is “tumors regressed”.

And the response after discontinuation ([7]; mice followed for 6 weeks after discontinuation)?
The response after discontinuation was “did not induce a sustained response”.

What about the “growth of well-established subcutaneous xenografts” value ([7]; small number of mice) of the same compound?
The value was “inhibited growth”.

What about the Cmax [8] of the same compound?
The Cmax was about 700 nM.

And the Cmax ([8]; listed as Romidepsin)?
The Cmax was 700 nM.

What about the “effect on lung metastases” value [9] of the same compound?
The value was “less effect”.

What about the “growth of lung metastases” value [10] of the same compound?
The value was “prevented”.

What about the “share of canine patient samples whose sarcospheres responded” value ([11]; ED50s <70 nmol/L) of the same compound?
Its value is 50%.

And the ED50 ([11]; canine patient sample MVHcOS001 (romidepsin resistant))?
The ED50 was >1,000 nmol/L.

And the ED50 ([11]; canine patient sample MVHcOS002 (romidepsin resistant))?
The ED50 was >1,000 nmol/L.

What about the ED50 ([11]; canine patient sample MVHcOS003 (romidepsin sensitive)) of the same compound?
The ED50 was 22 nmol/L.

And the ED50 ([11]; canine patient sample MVHcOS004 (romidepsin sensitive))?
Its ED50 is 6 nmol/L.

What about the ED50 ([11]; canine patient sample MVHcOS005 (romidepsin resistant)) of the same compound?
Its ED50 is >1,000 nmol/L.

And the ED50 ([11]; canine patient sample MVHcOS006 (romidepsin resistant))?
The ED50 was >1,000 nmol/L.

What about the ED50 ([11]; canine patient sample PUcOS001 (romidepsin sensitive)) of the same compound?
The ED50 was 65 nmol/L.

And the ED50 ([11]; canine patient sample PUcOS002 (romidepsin sensitive))?
Its ED50 is 46 nmol/L.

What about the ED50 ([11]; canine patient sample PUcOS003 (romidepsin resistant)) of the same compound?
The ED50 was >1,000 nmol/L.

And the ED50 ([11]; canine patient sample PUcOS004 (romidepsin sensitive))?
The ED50 was 57 nmol/L.

And the “effect on sarcosphere size” value (LM7 sarcospheres [12])?
The value was “did not alter size”.

And the “effect on sarcosphere size” value (143B sarcospheres [13])?
The value was “inhibited the increase in size”.
